Results reported in US5843954A, “Camptothecin derivatives, preparations thereof and antitumor agents” (priority 1994, dated 1998).
≈ marks a conversion by molar mass, not a printed value.

Key:
Water solubility = type: physicochemical
[1] = Antitumor activity for L1210 (life prolonging effect, mouse leukemia transplanted intraperitoneally); type: in vivo; settings: mouse, in vivo, ip; numerator of therapeutic index; i.p. total dose; read-out: Maximum tolerable dose
Description: (§1) 5×10^5 cells of mouse leukemia L1210 were transplanted intraperitoneally to a group of six female CDF1 mice (7 weeks old, body weight 17-19 g). The test compound was administered intraperitoneally on day 1, 5 and 9 and its life prolonging effect was observed.
(§2) In a case of the administration of a test compound as an acid addition salt the test compound was dissolved in water. The total administration amount was 1.56 mg/kg-400 mg/kg. The antitumor activity was expressed by the value (T/C%) wherein T denotes the mean survival days in the drug administered group and C denotes those in the non administered group. In case of equal to or more than 125% the drug is considered to be effective.

mouse leukemia L1210 = assay: as above; type: in vivo; settings: for minimal effective dose: Mus musculus, L1210, ip, denominator of therapeutic index, i.p. total dose, read-out: Minimum effective dose; for 40-day survivors: at optimum dose, group of six female CDF1 mice; for Therapeutic Index (Maximum tolerable dose/Minimum effective dose): i.p., L1210, CDF1 mice
Description: as §1, §2

[2] = Acute toxicity test by intraperitoneal administration; settings: mouse, in vivo, ip, ICR male mice, 1 week observation
Description: Acute toxicity test was conducted by intraperitoneal administration using a group of twenty ICR male mice (4 weeks old, body weight around 20 g).
LD50 value was calculated by the Richfield-Willcokson method from a lethal ratio observing the fate of mice during 1 week after administration of a test compound.

Compound	solubility (Water solubility)	MTD [1]	minimal effective dose (mouse leukemia L1210)	40-day survivors (mouse leukemia L1210)	Therapeutic Index (Maximum tolerable dose/Minimum effective dose) (mouse leukemia L1210)	LD50 at 168 h [2]
CCc1c2c(nc3cc(F)ccc13)-c1cc([C@@](O)(CC)C(=O)NCCN(C)C)c(COC(=O)CCSC)c(=O)n1C2 [Compound C10]	> 62 mg/mL	12.5 mg/kg	1.56 mg/kg	1/6	8	146 mg/kg
CCc1c2c(nc3cc(F)ccc13)-c1cc([C@@](O)(CC)C(=O)NCCN(C)C)c(COC(=O)c3ccc(OC)cc3)c(=O)n1C2 [Compound C11]	8 mg/mL (≈ 13 mM)	50 mg/kg	6.25 mg/kg	0/6	8	146 mg/kg
CCc1c2c(nc3cc(Cl)ccc13)-c1cc([C@@](O)(CC)C(=O)NCCN(C)C)c(COC(=O)CCSC)c(=O)n1C2 [Compound C12]	> 64 mg/mL	25 mg/kg	6.25 mg/kg	1/6	–	284 mg/kg
CCc1c2c(nc3cc(F)c(F)cc13)-c1cc([C@@](O)(CC)C(=O)NCCN(C)C)c(COC(=O)c3ccc(OC)cc3)c(=O)n1C2 [Compound C16]	6 mg/mL (≈ 9.45 mM)	12.5 mg/kg	6.25 mg/kg	0/6	2	65.6 mg/kg
CCC(=O)OCc1c([C@@](O)(CC)C(=O)NCCN(C)C)cc2n(c1=O)Cc1c-2nc2cc(Cl)c(Cl)cc2c1CC [Compound C17]	> 64 mg/mL	6.25 mg/kg	1.56 mg/kg	2/6	4	112 mg/kg
CCCC(=O)OCc1c([C@@](O)(CC)C(=O)NCCN(C)C)cc2n(c1=O)Cc1c-2nc2cc(Cl)c(Cl)cc2c1CC [Compound C18]	35 mg/mL (≈ 58 mM)	3.13 mg/kg	< 1.56 mg/kg	0/6	> 2	92.3 mg/kg
CCc1c2c(nc3cc(Cl)c(Cl)cc13)-c1cc([C@@](O)(CC)C(=O)NCCN(C)C)c(COC(=O)CCSC)c(=O)n1C2 [Compound C19]	24 mg/mL (≈ 37.8 mM)	3.13 mg/kg	< 1.56 mg/kg	0/6	> 2	94.8 mg/kg
CCC(=O)OCc1c([C@@](O)(CC)C(=O)NCCN(C)C)cc2n(c1=O)Cc1c-2nc2cc(F)c(OC)cc2c1CC [Compound C20]	> 60 mg/mL	3.13 mg/kg	< 1.56 mg/kg	0/6	> 2	84.5 mg/kg
CCCC(=O)OCc1c([C@@](O)(CC)C(=O)NCCN(C)C)cc2n(c1=O)Cc1c-2nc2cc(F)c(OC)cc2c1CC [Compound C21]	> 63 mg/mL	3.13 mg/kg	< 1.56 mg/kg	0/6	> 2	124 mg/kg
CCC(=O)OCc1c([C@@](O)(CC)C(=O)NCCN(C)C)cc2n(c1=O)Cc1c-2nc2cc(F)c(C)cc2c1CC [Compound C23]	20 mg/mL (≈ 36.2 mM)	12.5 mg/kg	< 1.56 mg/kg	0/6	> 8	184 mg/kg
CCCC(=O)OCc1c([C@@](O)(CC)C(=O)NCCN(C)C)cc2n(c1=O)Cc1c-2nc2cc(F)c(C)cc2c1CC [Compound C24]	42 mg/mL (≈ 74.1 mM)	25 mg/kg	1.56 mg/kg	1/6	> 16	203 mg/kg
CCc1c2c(nc3cc(F)c(C)cc13)-c1cc([C@@](O)(CC)C(=O)NCCN(C)C)c(COC(=O)CCSC)c(=O)n1C2 [Compound C25]	> 63 mg/mL	12.5 mg/kg	< 1.56 mg/kg	1/6	> 8	154 mg/kg
CCc1c2c(nc3cc(F)c(C)cc13)-c1cc([C@@](O)(CC)C(=O)NCCN(C)C)c(COC(=O)c3ccc(OC)cc3)c(=O)n1C2 [Compound C26]	9 mg/mL (≈ 14.3 mM)	50 mg/kg	12.5 mg/kg	0/6	> 4	113 mg/kg
CCC(=O)OCc1c([C@@](O)(CC)C(=O)NCCN(C)C)cc2n(c1=O)Cc1c-2nc2ccc(O)cc2c1CC [Compound C28]	> 56 mg/mL	200 mg/kg	12.5 mg/kg	0/6	16	341 mg/kg
CCCC(=O)OCc1c([C@@](O)(CC)C(=O)NCCN(C)C)cc2n(c1=O)Cc1c-2nc2ccc(O)cc2c1CC [Compound C30]	> 58 mg/mL	200 mg/kg	6.25 mg/kg	0/6	32	362 mg/kg
CCc1c2c(nc3ccc(O)cc13)-c1cc([C@@](O)(CC)C(=O)NCCN(C)C)c(COC(=O)CCSC)c(=O)n1C2 [Compound C32]	> 62 mg/mL	200 mg/kg	6.25 mg/kg	0/6	32	307 mg/kg
CCc1c2c(nc3ccc(O)cc13)-c1cc([C@@](O)(CC)C(=O)NCCN(C)C)c(COC(=O)c3ccc(F)cc3)c(=O)n1C2 [Compound C36]	17 mg/mL (≈ 28.2 mM)	200 mg/kg	12.5 mg/kg	0/6	16	477 mg/kg
CCc1c2c(nc3ccc(O)cc13)-c1cc([C@@](O)(CC)C(=O)NCCN(C)C)c(COC(=O)c3cccc(F)c3)c(=O)n1C2 [Compound C38]	6 mg/mL (≈ 9.96 mM)	200 mg/kg	12.5 mg/kg	0/6	16	421 mg/kg
